Converted amounts (≈) assume the structure as drawn. The source made the active and inactive calls. The calls are words filed in the database; no cut-off is given here.
Columns and labels:
[1] = test system: ATP synthase (Mycobacterium tuberculosis), P9WPU9+P9WPU5+P9WPU7+P9WPV5+P9WPS1+P9WPV1+P9WPV7+P9WPV3 [A63P]; assay: Inhibition of Mycobacterium tuberculosis isolate BK12 ATP synthase subunit c A63P mutant-mediated ATP synthesis after 24 hrs by luminometry
[2] = test system: ATP synthase (Mycobacterium tuberculosis), P9WPU9+P9WPU5+P9WPU7+P9WPV5+P9WPS1+P9WPV1+P9WPV7+P9WPV3 [I66M]; assay: Inhibition of Mycobacterium tuberculosis isolate LV13 ATP synthase subunit c I66M mutant-mediated ATP synthesis after 24 hrs by luminometry
[3] = test system: Mycobacterium tuberculosis; assay: Antimicrobial activity against wild-type Mycobacterium tuberculosis isolate BK12 expressing ATP synthase AtpE A63P mutant protein assessed as growth inhibition in early log-phase by 7H10 agar dilution method; format: functional, organism-based
[4] = test system: Mycobacterium tuberculosis; assay: Antimicrobial activity against wild-type Mycobacterium tuberculosis isolate LV13 expressing ATP synthase AtpE I66M mutant protein assessed as growth inhibition in early log-phase by 7H10 agar dilution method; format: functional, organism-based
[5] = test system: Mycobacterium tuberculosis; assay: Antimicrobial activity against Mycobacterium tuberculosis H37Rv isolate LV13 expressing ATP synthase atpE I66M mutant protein by 7H9 broth dilution method; format: functional
[6] = test system: Mycobacterium tuberculosis; assay: Antimicrobial activity against Mycobacterium tuberculosis H37Rv isolate BK12 expressing ATP synthase atpE A63P mutant protein by 7H9 broth dilution method; format: functional
[7] = test system: Mycobacterium tuberculosis; assay: Antimicrobial activity against Mycobacterium tuberculosis H37Rv isolate LV13 expressing ATP synthase atpE I66M mutant protein by 7H10 broth dilution method; format: functional
[8] = test system: Mycobacterium tuberculosis; assay: Antimicrobial activity against Mycobacterium tuberculosis H37Rv isolate BK12 expressing ATP synthase atpE A63P mutant protein by 7H10 broth dilution method; format: functional
[9] = test system: Mycobacterium tuberculosis; assay: Ratio of MIC for Mycobacterium tuberculosis H37Rv isolate LV13 expressing ATP synthase atpE I66M mutant protein to MIC for Mycobacterium tuberculosis H37Rv; format: functional
[10] = test system: Mycobacterium tuberculosis; assay: Ratio of MIC for Mycobacterium tuberculosis H37Rv isolate BK12 expressing ATP synthase atpE A63P mutant protein to MIC for Mycobacterium tuberculosis H37Rv; format: functional

**Q.** What does the source list for `COc1nc2ccc(Br)cc2cc1[C@@H](c1ccccc1)[C@@](O)(CCN(C)C)c1cccc2ccccc12`?
**A.** inhibition [1]: inactive; inhibition [2]: inactive; Activity [3]: Active; Activity [4]: Active

**Q.** For `COc1nc2ccc(Br)cc2cc1[C@@H](c1ccccc1)[C@@](O)(CCN(C)C)c1cccc2ccccc12` [BEDAQUILINE], which MIC [5] is on record?
**A.** 11 µg/mL (≈ 19.8 µM)

**Q.** What about the MIC [6] of the same compound?
**A.** 11 µg/mL (≈ 19.8 µM)

**Q.** And the MIC [7]?
**A.** 13 µg/mL (≈ 23.4 µM)

**Q.** What about the MIC [8] of the same compound?
**A.** 13 µg/mL (≈ 23.4 µM)

**Q.** And the Ratio [9]?
**A.** >200

**Q.** And the Ratio [10]?
**A.** >200
